Measured values as given in ChEMBL document CHEMBL1201862, “PubChem BioAssay data set” (2004).
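Five compound concentrations were applied to cells in 96-well plates for 48 hours; endpoints were derived by simple linear interpolation of the resulting dose-response curve. GI50 marks 50% less growth.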 Active and inactive are the calls of the source. Cut-off read from the data, not from the text of the source: active = GI50 up to about 1.1 µM and inactive = higher.

Legend:
Experiment in all cases: NCI-60 cell line screen, 48 h
786-0 = tested on: 786-0
A549 = tested on: A549
ACHN = tested on: ACHN
BT-549 = tested on: BT-549
CAKI-1 = tested on: CAKI-1
CCRF-CEM = tested on: CCRF-CEM
COLO 205 = tested on: COLO 205
DU-145 = tested on: DU-145
HCC 2998 = tested on: HCC 2998
HCT-116 = tested on: HCT-116
HCT-15 = tested on: HCT-15
HL-60 = tested on: HL-60
HOP-62 = tested on: HOP-62
HOP-92 = tested on: HOP-92
HT-29 = tested on: HT-29
Hs-578T = tested on: Hs-578T
IGROV-1 = tested on: IGROV-1
K562 = tested on: K562
KM12 = tested on: KM12
LOX IMVI = tested on: LOX IMVI
M14 = tested on: M14
MCF7 = tested on: MCF7
MDA-MB-231 = tested on: MDA-MB-231
MDA-MB-435 = tested on: MDA-MB-435
MDA-N = tested on: MDA-N
MOLT-4 = tested on: MOLT-4
Malme-3M = tested on: Malme-3M
NCI-H23 = tested on: NCI-H23
NCI-H460 = tested on: NCI-H460
NCI/ADR-RES = tested on: NCI/ADR-RES
OVCAR-3 = tested on: OVCAR-3
OVCAR-4 = tested on: OVCAR-4
OVCAR-5 = tested on: OVCAR-5
PC-3 = tested on: PC-3
RPMI-8226 = tested on: RPMI-8226
RXF 393 = tested on: RXF 393
SF-268 = tested on: SF-268
SF-295 = tested on: SF-295
SF-539 = tested on: SF-539
SK-MEL-28 = tested on: SK-MEL-28
SK-MEL-2 = tested on: SK-MEL-2
SK-MEL-5 = tested on: SK-MEL-5
SK-OV-3 = tested on: SK-OV-3
SN12C = tested on: SN12C
SNB-19 = tested on: SNB-19
SNB-75 = tested on: SNB-75
SR = tested on: SR
SW-620 = tested on: SW-620
T47D = tested on: T47D
TK-10 = tested on: TK-10
U-251 = tested on: U-251
UACC-257 = tested on: UACC-257
UACC-62 = tested on: UACC-62
UO-31 = tested on: UO-31
EKVX = tested on: EKVX
NCI-H522 = tested on: NCI-H522
OVCAR-8 = tested on: OVCAR-8
A498 = tested on: A498
NCI-H226 = tested on: NCI-H226

Measured: GI50

CC(=O)OCC1OC(n2c(-c3ccccc3)c(/N=N/c3ccccc3)c(C)c(C#N)c2=S)C(OC(C)=O)C(OC(C)=O)C1OC(C)=O (centres undefined)
> 100 µM: HCT-15
inactive: 786-0 > 100 µM | A549 > 100 µM | ACHN > 100 µM | BT-549 > 100 µM | CAKI-1 > 100 µM | CCRF-CEM > 100 µM | COLO 205 > 100 µM | DU-145 > 100 µM | HCC 2998 > 100 µM | HCT-116 > 100 µM | HL-60 > 100 µM | HOP-62 > 100 µM | HOP-92 28.4 µM | HT-29 > 100 µM | Hs-578T > 100 µM | IGROV-1 > 100 µM | K562 > 100 µM | KM12 > 100 µM | LOX IMVI > 100 µM | M14 > 100 µM | MCF7 > 100 µM | MDA-MB-231 > 100 µM | MDA-MB-435 > 100 µM | MDA-N > 100 µM | MOLT-4 > 100 µM | Malme-3M > 100 µM | NCI-H23 > 100 µM | NCI-H460 > 100 µM | NCI/ADR-RES > 100 µM | OVCAR-3 > 100 µM | OVCAR-4 > 100 µM | OVCAR-5 > 100 µM | PC-3 > 100 µM | RPMI-8226 > 100 µM | RXF 393 > 100 µM | SF-268 > 100 µM | SF-295 > 100 µM | SF-539 > 100 µM | SK-MEL-28 > 100 µM | SK-MEL-2 > 100 µM | SK-MEL-5 > 100 µM | SK-OV-3 > 100 µM | SN12C > 100 µM | SNB-19 > 100 µM | SNB-75 > 100 µM | SR > 100 µM | SW-620 > 100 µM | T47D > 100 µM | TK-10 > 100 µM | U-251 > 100 µM | UACC-257 12.3 µM | UACC-62 > 100 µM | UO-31 > 100 µM

Cc1cc(Cl)ccc1NC(=O)/C(Cl)=C(/Cl)C(=O)O
inactive: 786-0 23.1 µM | A549 48.8 µM | ACHN 19.3 µM | BT-549 19.1 µM | CAKI-1 18.3 µM | CCRF-CEM 17.3 µM | COLO 205 28.4 µM | DU-145 23.9 µM | EKVX 19.1 µM | HCC 2998 17.9 µM | HCT-116 19 µM | HL-60 25.7 µM | HOP-62 22.2 µM | HOP-92 22.1 µM | HT-29 22.9 µM | Hs-578T 26.4 µM | K562 31.8 µM | KM12 31 µM | LOX IMVI 19.9 µM | M14 28.4 µM | MCF7 21.4 µM | MDA-MB-231 21.7 µM | MDA-MB-435 20.6 µM | MDA-N 24.1 µM | NCI-H23 29.3 µM | NCI-H460 > 100 µM | NCI-H522 15.4 µM | NCI/ADR-RES 29 µM | OVCAR-3 18.4 µM | OVCAR-5 19.5 µM | OVCAR-8 17.7 µM | PC-3 21.4 µM | RPMI-8226 24 µM | RXF 393 19.6 µM | SF-268 52.8 µM | SF-295 > 100 µM | SF-539 23 µM | SK-MEL-28 22.1 µM | SK-MEL-5 50.7 µM | SK-OV-3 > 100 µM | SN12C 18.1 µM | SNB-19 > 100 µM | SNB-75 29.9 µM | SR 15.1 µM | SW-620 21 µM | T47D 22.8 µM | TK-10 17.5 µM | U-251 19 µM | UACC-257 19.7 µM | UACC-62 21.5 µM | UO-31 > 100 µM
18.7 µM: HCT-15

CC(C(=O)c1ccncc1)c1ccccn1 (centres undefined)
> 100 µM: HCT-15
inactive: 786-0 > 100 µM | A498 > 100 µM | A549 > 100 µM | ACHN > 100 µM | BT-549 > 100 µM | CAKI-1 > 100 µM | CCRF-CEM > 100 µM | COLO 205 > 100 µM | DU-145 > 100 µM | EKVX > 100 µM | HCC 2998 > 100 µM | HCT-116 > 100 µM | HL-60 > 100 µM | HOP-62 > 100 µM | HOP-92 > 100 µM | HT-29 > 100 µM | Hs-578T > 100 µM | IGROV-1 > 100 µM | K562 > 100 µM | KM12 > 100 µM | LOX IMVI > 100 µM | M14 > 100 µM | MCF7 > 100 µM | MDA-MB-231 > 100 µM | MDA-MB-435 > 100 µM | MDA-N > 100 µM | Malme-3M > 100 µM | NCI-H226 > 100 µM | NCI-H23 > 100 µM | NCI-H460 > 100 µM | NCI-H522 > 100 µM | NCI/ADR-RES > 100 µM | OVCAR-3 > 100 µM | OVCAR-4 > 100 µM | OVCAR-5 > 100 µM | OVCAR-8 > 100 µM | PC-3 > 100 µM | RPMI-8226 > 100 µM | RXF 393 > 100 µM | SF-268 > 100 µM | SF-295 > 100 µM | SK-MEL-28 > 100 µM | SK-MEL-2 > 100 µM | SK-MEL-5 > 100 µM | SK-OV-3 > 100 µM | SN12C > 100 µM | SNB-19 > 100 µM | SW-620 > 100 µM | T47D > 100 µM | TK-10 > 100 µM | U-251 > 100 µM | UACC-257 > 100 µM | UACC-62 > 100 µM | UO-31 > 100 µM

COc1cc(/C=C/c2ccccn2)cc(OC)c1OC
> 10 µM: HCT-15
inactive: 786-0 > 10 µM | A498 > 10 µM | A549 > 10 µM | ACHN > 10 µM | BT-549 > 10 µM | CAKI-1 > 10 µM | CCRF-CEM > 10 µM | COLO 205 > 10 µM | DU-145 > 10 µM | EKVX > 10 µM | HCC 2998 > 10 µM | HCT-116 > 10 µM | HL-60 > 10 µM | HOP-62 > 10 µM | HOP-92 > 10 µM | HT-29 > 10 µM | Hs-578T > 10 µM | IGROV-1 > 10 µM | K562 > 10 µM | KM12 > 10 µM | LOX IMVI > 10 µM | M14 > 10 µM | MCF7 > 10 µM | MDA-MB-231 > 10 µM | MDA-MB-435 > 10 µM | MDA-N > 10 µM | MOLT-4 > 10 µM | Malme-3M > 10 µM | NCI-H226 > 10 µM | NCI-H23 > 10 µM | NCI-H460 > 10 µM | NCI-H522 > 10 µM | NCI/ADR-RES > 10 µM | OVCAR-3 > 10 µM | OVCAR-4 > 10 µM | OVCAR-5 > 10 µM | OVCAR-8 > 10 µM | PC-3 > 10 µM | RPMI-8226 > 10 µM | RXF 393 > 10 µM | SF-268 > 10 µM | SF-295 > 10 µM | SF-539 > 10 µM | SK-MEL-28 > 10 µM | SK-MEL-2 > 10 µM | SK-MEL-5 > 10 µM | SK-OV-3 > 10 µM | SN12C > 10 µM | SNB-19 > 10 µM | SNB-75 7.78 µM | SW-620 > 10 µM | T47D > 10 µM | TK-10 > 10 µM | U-251 > 10 µM | UACC-257 > 10 µM | UACC-62 > 10 µM | UO-31 > 10 µM
